Data on two compounds can be found in patent US20240294885A1, “ENGINEERED ENZYMES AND METHODS OF MAKING AND USING” (priority 2021, published 2024).

Each structure is given as a SMILES string.

Holding throughout (format): biochemical
Assay [1] deals with Mycobacterium avium CAR (SEQ ID NO:153) Variant 1 of Table 14 (K275D N276S F278S A283C I300G N335D), Variant 34 A282P M296A F425T (Mycobacterium avium, UniProt A0ACD7BNV2, A282P/A283C/F278S/F425T/G391S/I300G/K275D/M296A/N276S/N335D). Description: CAR lysate assay with 30 mM 6ACA ± 0.25M HMD (Table 14), Variant 34. The following applies: Variant 34, Table 14, 6ACA.
Assay [2] has as its target Mycobacterium avium CAR (SEQ ID NO:153) Variant 1 of Table 14 (K275D N276S F278S A283C I300G N335D), Variant 36 A282P M296A M389S N401T F425L (Mycobacterium avium, UniProt A0ACD7BNV2, A282P/A283C/F278S/F425L/G391S/I300G/K275D/M296A/M389S/N276S/N335D/N401T). Nature of the assay: CAR lysate assay with 30 mM 6ACA ± 0.25M HMD (Table 14), Variant 36. The following applies: Variant 36, Table 14, 6ACA.

The target of assay [3] is Mycobacterium avium CAR (SEQ ID NO:153) Variant 1 of Table 14 (K275D N276S F278S A283C I300G N335D), Variant 4 S274P (Mycobacterium avium, UniProt A0ACD7BNV2, A283C/F278S/G391S/I300G/K275D/N276S/N335D/S274P). Description: CAR lysate assay with 30 mM 6ACA ± 0.25M HMD (Table 14), Variant 4. The following applies: Variant 4, Table 14, 6ACA.
Assay [4] has as its target T1, Mycobacterium avium CAR (SEQ ID NO:153) Variant 1 of Table 14, K275D N276S F278S A283C I300G N335D (Mycobacterium avium, UniProt A0ACD7BNV2, A283C/F278S/G391S/I300G/K275D/N276S/N335D). Nature of the assay: CAR lysate assay with 10 mM 6ACA ± 125 mM HMD or 0.25M HMD (Table 15), CAR Variant 1.
The target in assay [5] is Mycobacterium avium CAR (SEQ ID NO:153) Variant 1 of Table 14 (K275D N276S F278S A283C I300G N335D), Variant 12 M296H (Mycobacterium avium, UniProt A0ACD7BNV2, A283C/F278S/G391S/I300G/K275D/M296H/N276S/N335D). Description: CAR lysate assay with 30 mM 6ACA ± 0.25M HMD (Table 14), Variant 12. The following applies: Variant 12, Table 14, 6ACA.
The target in assay [6] is T1, Mycobacterium avium CAR (SEQ ID NO:153) Variant 1 of Table 14, K275D N276S F278S A283C I300G N335D. Nature of the assay: CAR lysate assay with 30 mM 6ACA ± 0.25M HMD (Table 14), CAR Variant 1. To be noted: CAR Variant 1, Table 14, 6ACA.
Assay [7] has as its target Mycobacterium avium CAR (SEQ ID NO:153) Variant 1 of Table 14 (K275D N276S F278S A283C I300G N335D), Variant 33 A282P M296A F425L (Mycobacterium avium, UniProt A0ACD7BNV2, A282P/A283C/F278S/F425L/G391S/I300G/K275D/M296A/N276S/N335D). Nature of the assay: CAR lysate assay with 30 mM 6ACA ± 0.25M HMD (Table 14), Variant 33. To be noted: Variant 33, Table 14, 6ACA.
In assay [8] the target is Mycobacterium avium CAR (SEQ ID NO:153) Variant 1 of Table 14 (K275D N276S F278S A283C I300G N335D), Variant 37 A282P M296A M389S N401T F425N (Mycobacterium avium, UniProt A0ACD7BNV2, A282P/A283C/F278S/F425N/G391S/I300G/K275D/M296A/M389S/N276S/N335D/N401T). Nature of the assay: CAR lysate assay with 30 mM 6ACA ± 0.25M HMD (Table 14), Variant 37. To be noted: Variant 37, Table 14, 6ACA.

Assay [9] deals with Mycobacterium avium CAR (SEQ ID NO:153) Variant 1 of Table 14 (K275D N276S F278S A283C I300G N335D), Variant 35 A282P M296A M389S F425N (Mycobacterium avium, UniProt A0ACD7BNV2, A282P/A283C/F278S/F425N/G391S/I300G/K275D/M296A/M389S/N276S/N335D). Description: CAR lysate assay with 30 mM 6ACA ± 0.25M HMD (Table 14), Variant 35. To be noted: Variant 35, Table 14, 6ACA.
Assay [10] concerns the target Mycobacterium avium CAR (SEQ ID NO:153) Variant 1 of Table 14 (K275D N276S F278S A283C I300G N335D), Variant 38 A282P M296A N401T F425L (Mycobacterium avium, UniProt A0ACD7BNV2, A282P/A283C/F278S/F425L/G391S/I300G/K275D/M296A/N276S/N335D/N401T). Description: CAR lysate assay with 30 mM 6ACA ± 0.25M HMD (Table 14), Variant 38. The following applies: Variant 38, Table 14, 6ACA.

The test system of assay [11] is carboxylic acid reductase (CAR). To be noted: 6ACA as substrate, 30 mM or 10 mM; HMD 125 mM or 0.25M.

On to `NCCCCCC(=O)O` [6ACA], for which the Vmax result is on record as “+ (<5)” in [1]; “++ (5.0-10.0)” in [2]; “+++ (>10.0)” in assay [3]; “+++ (>10.0)” in [4] (CAR Variant 1, Table 15, 6ACA); “+++ (>10.0)” in assay [5]; “+++ (>10.0)” in [6]. For the same compound, the Vmax entry in [7] was “+ (<5)”; in assay [8] it was “++ (5.0-10.0)”; in [9], “++ (5.0-10.0)”; in assay [10], “++ (5.0-10.0)”.
As for `NCCCCCCN` [HMD, hexamethylenediamine, reference compound], the “% inhibition @ 0.25M HMD & 10 mM 6ACA” value in assay [4] (CAR Variant 1, 0.25M HMD, 10 mM 6ACA) is given as “++ (60-90)”. For the same compound, in assay [11], the “inhibition of CAR in the presence of HMD” value was “inhibited”.
